Columns and labels:
[1] = Uptake in end bone and midbone of femur in anesthetized rats, NaI scintillation counting (Table II); format: in vivo; settings: vein, 120 minutes; for % Dose/gram End Bone: femur ends; for % Dose/gram Midbone: femur mid-section; for End-/Mid-bone: femur, ratio of end bone to midbone
Procedure: Fifty μl of the complex prepared in Example 1 was injected into the vein of anesthetized laboratory rats. After 120 minutes the animals were killed and the femurs removed. The ends of the bones were cut away from the mid-section and each section was weighed and analyzed separately. The amount of activity in the bone sections was quantitated using NaI scintillation counting. The results were compared to those of complexes prepared from commercial diphosphonate kits (Table II).

[2] = after intravenous administration; cited from earlier work

| Compound | % Dose/gram End Bone [1] [% Dose/gram] | % Dose/gram Midbone [1] [% Dose/gram] | End-/Mid-bone [1] | accumulation by bone (in words) [2] |
| --- | --- | --- | --- | --- |
| CC(O)(P(=O)(O)O)P(=O)(O)O [EHDP, hydroxyethanediphosphosphonate] | 3.40 | 1.46 | 2.33 | – |
| O=P(O)(O)OP(=O)(O)O [PYP, pyrophosphate] | 3.50 | 1.78 | 1.97 | – |
| [85Sr] [Sr-85, Strontium-85] | – | – | – | rapidly accumulated by bone |
| methylenediphosphonate [MDP] | 3.95 | 1.90 | 2.08 | – |

Reference: patent publication US4515767A, “Radioactive metals complexed with phosphonate derivatives of dicyclopentadienebis(methylamine)” (The Dow Chemical Company, priority 1983, dated 1985)
